Measurements reported in paper PMC9501633, “Synthesis, Characterisation and Mechanism of Action of Anticancer 3-Fluoroazetidin-2-ones” (Pharmaceuticals, 2022).
pIC50: −log10 of the molar value.

Columns and labels:
Hs578T cells = experiment: AlamarBlue cell viability assay; type: cell-based; conditions: Homo sapiens, Hs-578T
Method: (§1) The potent 3-fluoro-β-lactam compound 33 synthesised was also evaluated in the triple-negative MDA-MB-231 cell line which lacks expression of the estrogen and progesterone receptors (ER/PR) and the HER2 receptor. […]. Compound 32 was also evaluated in the triple-negative breast cancer cell line Hs578T and its isogenic subclone Hs578T(i)8 (Figure 4C). Hs578Ts(i)8 cells have 2.5-fold more migratory capacity and 3-fold more invasive capacity through the extracellular matrix than the parental cell line (Hs578T) and have 30% more CD44+/CD24-/low cells and in vivo proliferation. […]. The human breast carcinoma cell lines MCF-7 and MDA-MB-231 were purchased from the European Collection of Animal Cell Cultures (ECACC, Salisbury, UK). The SW-480 cells were a kind gift from Dr. Brian Flood, School of Biochemistry and Immunology, Trinity College Dublin. The human breast tumour cell line MCF-7 was cultured in Eagles minimum essential medium with 10% foetal bovine serum, 2 mM L-glutamine and 100 μg/mL penicillin/streptomycin. The medium was supplemented with 1% non-essential amino acids. The human breast tumour cell line MDA-MB-231 cells were maintained in Dulbecco’s modified Eagle’s medium (DMEM) with the addition of penicillin/streptomycin (100 µg/mL), 10% (v/v) foetal bovine serum and 2 mM L-glutamine (complete medium). Breast cancer cell line Hs578T and its isogenic subclone Hs578T(i)8 were a kind gift from Dr. Susan McDonnell, School of Chemical and Bioprocess Engineering, University College Dublin. SW-480 cells, triple-negative breast cancer Hs578T cells and invasive variant Hs578T8i cells were cultured in DMEM with GlutaMAX-I, with the same supplement in the absence of non-essential amino acids. HEK-293T cells (normal epithelial embryonic kidney cells) were cultured in DMEM with GlutaMAX-I in the absence of non-essential amino acids. The SW-480 cells were cultured in DMEM with GlutaMAX-I, with the same supplement in the absence of non-essential amino acids. All media contained 100 U/mL penicillin and 100 μg/mL streptomycin. The cells were seeded into pre-warmed complete medium (10 × 10^4 cells/mL) and maintained at a cell density of 2–19 × 10^5 cells /mL by the addition of fresh media. The cell number was monitored using a haemocytometer. Cells were maintained at 37 °C in 5% CO2 in a humidified incubator. […]
(§2) Figure 4 Antiproliferative activity of 3-fluoro β-lactams on MCF-7, MDA-MB-231, Hs578T and Hs578T isogenic subclone Hs578T(i)8 breast cancer cells and non-tumourigenic HEK-293T cells. […] Cell viability was expressed as a percentage of vehicle control (ethanol 1% (v/v))-treated cells. […] Cell viability was expressed as a percentage of vehicle control (ethanol 1% (v/v))-treated cells and was measured by AlamarBlue assay (average of three independent experiments). […]

Hs578Ts(i)8 cells = experiment: AlamarBlue cell viability assay; type: cell-based
Method: as §1, §2

Bax = experiment: Western blot of apoptosis regulatory proteins in MCF-7 cells; type: cell-based, human; conditions: MCF-7, 0.05, 0.1 and 0.5 μM, 48 and 72 h, dose-dependent
Method: (§3) The selective Bcl-2 inhibitor venetoclax was developed as a BH3-mimetic that binds to the pro-survival protein Bcl-2 and inhibits its ability to bind Bax or Bak. Venetoclax has been approved for clinical use in the treatment of chronic lymphocytic leukaemia (CLL). Compound 33 induced downregulation of Bcl-2 expression with corresponding upregulation of Bax at 48 h in a dose-dependent manner. This effect was further increased at 72 h.
(§4) Western blot analysis was performed according to the protocols we previously described. MCF-7 cells were seeded at a density of 1 × 10^5 cells/flask in T25 flasks. After 48 h, whole cell lysates were prepared from untreated cells or cells treated with vehicle control (EtOH, 0.1% v/v) or cells treated with compound 33 (0.05 μM, 0.1 μM and 0.5 μM). MCF-7 cells were harvested in RIPA buffer which was supplemented with protease inhibitors (Roche Diagnostics, Rotkreuz, Switzerland), phosphatase inhibitor cocktail 2 (Sigma-Aldrich, Arklow, Ireland) and phosphatase inhibitor cocktail 3 (Sigma-Aldrich, Arklow, Ireland). Equal amounts of protein (as determined by a BCA assay) were resolved by SDS-PAGE (12%) followed by transfer to PVDF membranes. […] Proteins were detected using enhanced chemiluminescent Western blot detection (Clarity Western ECL substrate) (Bio-Rad) on the ChemiDoc MP System (Bio-Rad). […]

Bcl-2 = experiment: as above; type: cell-based, human; conditions: MCF-7, 0.05, 0.1 and 0.5 μM, 48 and 72 h, dose-dependent
Method: as §3, §4

Row | Structure (SMILES) | pIC50 (Hs578T cells) | pIC50 (Hs578Ts(i)8 cells) | Bax expression (Bax) | Bcl-2 expression (Bcl-2)
1 | COc1ccc(/C=C\c2cc(OC)c(OC)c(OC)c2)cc1O [CA-4, combretastatin A-4, reference compound] | 8.10 | 7.70 | – | –
2 | COc1ccc(C2C(F)C(=O)N2c2cc(OC)c(OC)c(OC)c2)cc1F (stereo not shown) [Compound 33, 3-Fluoro-4-(3-fluoro-4-methoxyphenyl)-1-(3,4,5-trimethoxyphenyl)azetidin-2-one] | – | – | upregulation | downregulation
